In patent publication US20130253179A1, “Functionalization Processes and Reactants Used in Such Processes Using an Isatoic Anhydride or a Derivative Thereof, Biological Molecules Thus Treated and Kits” (priority 2010, published 2013):

Tests used:
[1] = system: ODN with 53 bases; assay: RNA vs DNA chemoselectivity: functionalisation of an ODN with 53 bases; type: biochemical; settings: compound 30 mM, DMSO/TEAAc buffer 25/75 (250 mM pH 7), 1 h at 65° C.
Method: After precipitation with acetone and hydrolysis with nuclease P1 and alkaline phosphatase, the hydrolysed fragments are analysed by LC-MS, as described in example 3. An example of the chromatograms monitoring the reaction of ODN or ORN with compound 13 is shown in FIG. 9, in which graphs A, B and C respectively represent ORN, ORN functionalised with compound 13 and precipitated, and ORN functionalised with 13, precipitated and hydrolysed. Graphs D, E and F represent the same thing, but with ODN.

[2] = system: model oligoribonucleotide (ORN) with 27 bases; assay: Functionalisation of a model ORN with 27 bases: functionalisation rate and regiospecificity by HPLC/LC-MS after nuclease P1/alkaline phosphatase hydrolysis; type: biochemical; settings: for Fr (corrected functionalisation rate): ORN 8 nmol; for Fr (corrected functionalisation rate) / External/internal regiospecificity (uncorrected ratio of areas acylated mononucleosides / acylated dinucleotides): compound 30 mM, 1 h at 65° C., 250 mM TEAAc pH 7, 25% DMSO
Source text: For this purpose, a fixed quantity of ORN is reacted with an isatoic anhydride derivative conjugated to a molecule of interest (Cy3 IA Me (13)), under various temperature conditions, duration conditions, reaction medium conditions, etc. HPLC monitoring of the reaction at 260 nm makes it possible to detect the disappearance of the peak corresponding to the initial ORN and the appearance of peaks corresponding to acylated ORN. These products have a greater retention time and have an absorption spectrum corresponding to both that of ORN and that of the fluorescent label.
However, for greater precision on the functionalisation site and to precisely evaluate the functionalisation rate (Fr), the ORN population (labelled and unlabelled) is separated from the excess label by precipitation with acetone/lithium perchlorate or by gel permeation (NAP 5™, GE Health Care. Then the ORNs thus obtained are submitted to hydrolysis with the nuclease P1 (Aldrich, Saint Louis, USA) and with the alkaline phosphatase (Aldrich, Saint Louis, USA), in order to hydrolyse the phosphate diester bonds of ORN.
The ORN functionalisation rate (Fr) is evaluated by measuring: • the area corresponding to the terminal mononucleoside adducts (functionalised at 2′ and at 3′) and the area corresponding to the acylated dinucleosides (functionalised internally on 2′OH) • compared to the area of the peaks corresponding to the four ribonucleosides.
The internal/external regiospecificity of the acylation is evaluated by measuring the relative proportion of the areas corresponding to the: • end mono-nucleotides acylated at 2′ and at 3′ • and di-nucleotides acylated internally on 2′OH • which are easily detectable by HPLC.
The mixture is incubated for 60 minutes at 65° C. in an oven on a rack which is temperature-balanced in advance. An HPLC injection (conditions 3) makes it possible to monitor a formation of a certain quantity of acylated ORN as described in FIG. 6. To eliminate the salts and the excess label, the mixture is then purified on Sephadex NAP 5 gel (GE Health Care, Uppsala, Sweden)) and/or triple precipitation in 1.2 mL of a 180 mM Acetone/LiClO4 75/25 mixture. To finish, the pellet is dried with acetone and is evaporated with the centrifugal evaporator (RCT 60, Jouan, St Herblain, France). The residue is then taken up in 33 μL of a H2O/DMSO 85/15 solution and an HPLC injection (conditions 3) is performed in order to verify the proper elimination of the label. There is added to the mixture 2 μL of nuclease P1 (ref.: N8630 Sigma-Aldrich, St Louis, USA) in 1 U/μl solution in its buffer: 20 mM sodium acetate pH 5.5; 1 mM ZnCl2; 50 mM NaCl and 1 μL of 7 u/μl alkaline phosphatase in water (Ref. P7923-2KU Sigma-Aldrich, St Louis, USA). The medium is left at ambient temperature for 4 to 6 hours. It is then injected into HPLC (conditions 3) in order to verify the total hydrolysis of the ORN and in order to analyse the nature of the fragments obtained in accordance with what was described above and as described in FIG. 6.
The functionalisation rate is evaluated with UV at 260 nm by integration of the clusters corresponding to the acylated dinucleotides and to the acylated nucleosides) relative to the clusters corresponding to the four ribonucleosides. The ratio of the population of acylated dinucleotides to the population of acylated nucleosides is evaluated in the same way in order to evaluate the percentage of functionalisation on the 3′ terminal end.
The functionalisation rate values, presented within the framework of this invention, take into account the correction factor which must be applied according to the molar extinction coefficient at 260 nm of each of the nucleosides and according to whether they are nucleosides or dinucleotides. […]

[3] = FIG. 6 graph D, share of functionalised adducts

| Structure (SMILES) | corrected functionalisation rate of the ODN [1] | Fr (corrected functionalisation rate) [2] | External/internal regiospecificity (uncorrected ratio of areas acylated mononucleosides / acylated dinucleotides) [2] | acylated dinucleotides (peak 1) [2, 3] | nucleosides acylated at 2′ or at 3′ (peaks 2 and 3) [2, 3] | Fr (corrected functionalisation rate) ([2]; listed as 13) | Fr (corrected functionalisation rate) ([2]; listed as Cy3 IA ME (13)) | corrected functionalisation rate ([2]; compound 15 mM, protocol of example 3) |
| --- | --- | --- | --- | --- | --- | --- | --- | --- |
| Cn1c(=O)oc(=O)c2cc(NC(=O)CCSSCCNC(=O)CCOCCOCCOCCOCCNC(=O)CCCCC3SCC4NC(=O)NC43)ccc21 (centres unmarked) [5Biot PEG4 SS IA Me 24] | 0.1% | 2.8% | 62/38 |  |  |  |  |  |
| CCN1/C(=C\C=C\C2=[N+](CCCCCC(=O)Nc3ccc4c(c3)c(=O)oc(=O)n4C)c3ccc(S(=O)(=O)[O-])cc3C2(C)C)C(C)(C)c2cc(S(=O)(=O)[O-])ccc21.[K+] [Cy3 IA Me 13, 1-methyl 5-Cy3-isatoic anhydride] | 0.1% | 4.5% | 58/42 | 42% | 58% | 4.5% | 4.2% | 2.6% |
